Data reported in patent publication US9695155B2, “Herbicidal substituted pyrimidinyloxy benzene compounds” (E. I. DU PONT DE NEMOURS AND COMPANY, priority 2013, dated 2017).

Columns and labels:
barnyardgrass [1] = test: Test A preemergence; type: in vivo, Echinochloa crus-galli
Summary of the method: (§1)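 Pre- and postemergence greenhouse screen. Soil: loam + sand. Spray carrier: solvent mixture, non-phytotoxic, with surfactant. Post timing at 1–2 leaves, height 2–10 cm. Readout: visual injury on a 0–100 scale roughly 10 days after application, untreated plants as reference.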

morningglory [2] = test: Test A preemergence; type: in vivo, Ipomoea spp.
Summary of the method: as §1

pigweed [3] = test: Test A preemergence; type: in vivo, Amaranthus retroflexus
Summary of the method: as §1

velvetleaf [4] = test: Test A preemergence; type: in vivo, Abutilon theophrasti
Summary of the method: as §1

morningglory [5] = test: Test A postemergence; type: in vivo, Ipomoea spp.
Summary of the method: as §1

wheat = test: Test A postemergence; type: in vivo, Triticum aestivum
Summary of the method: as §1

Heteranthera limosa = test: Test B flooded paddy test; type: in vivo; conditions: Flood, 250 g ai/ha; 0 to 100 scale where 0 is no effect and 100 is complete control
Summary of the method: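 Plants were grown to the 2-leaf stage, then pots were flooded to 3 cm above the soil and compounds were applied directly into the paddy water. That depth was held throughout, and after 13 to 15 days in the greenhouse injury was rated visually against controls on a 0–100 scale (0 no effect, 100 complete control).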

blackgrass = test: Test C postemergence; type: in vivo, Alopecurus myosuroides; conditions: for Plant response rating (0 to 100), Blackgrass: 16 g ai/ha, 0 is no effect, 100 is complete control; for Blackgrass plant response rating: 31 g ai/ha; for Blackgrass plant response rating / Plant response rating, Blackgrass: scale 0 to 100 (0 no effect, 100 complete control)
Summary of the method: (§2)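 Preemergence: seeds sown in a loam soil–sand blend and sprayed with test chemical in a non-phytotoxic solvent mixture containing surfactant. Postemergence: plants at 2 to 18 cm (1- to 4-leaf stage) in peat-based medium, treated with the same formulation. Greenhouse 13 to 15 days, then visual rating 0 (no effect) to 100 (complete control).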

morningglory [6] = test: Test C postemergence; type: in vivo, Ipomoea coccinea; conditions: for Plant response rating (0 to 100), Morningglory: 16 g ai/ha, 0 is no effect, 100 is complete control; for Morningglory plant response rating: 31 g ai/ha; for Morningglory plant response rating / Plant response rating, Morningglory: scale 0 to 100 (0 no effect, 100 complete control)
Summary of the method: as §2

pigweed [7] = test: Test C postemergence; type: in vivo, Amaranthus retroflexus; conditions: for Plant response rating (0 to 100), Pigweed: 16 g ai/ha, 0 is no effect, 100 is complete control; for Pigweed plant response rating: 31 g ai/ha; for Pigweed plant response rating / Plant response rating, Pigweed: scale 0 to 100 (0 no effect, 100 complete control)
Summary of the method: as §2

ragweed = test: Test C postemergence; type: in vivo, Ambrosia elatior; conditions: for Plant response rating (0 to 100), Ragweed: 16 g ai/ha, 0 is no effect, 100 is complete control; for Ragweed plant response rating: 31 g ai/ha; for Ragweed plant response rating / Plant response rating, Ragweed: scale 0 to 100 (0 no effect, 100 complete control)
Summary of the method: as §2

barnyardgrass [8] = test: Test C postemergence; type: in vivo, Echinochloa crus-galli; conditions: for Plant response rating (0 to 100), Barnyardgrass: 16 g ai/ha, 0 is no effect, 100 is complete control; for Barnyardgrass plant response rating: 31 g ai/ha, 13 to 15 days; for Barnyardgrass plant response rating / Plant response rating, Barnyardgrass: scale 0 to 100 (0 no effect, 100 complete control)
Summary of the method: as §2

kochia = test: Test C postemergence; type: in vivo, Kochia scoparia; conditions: for Plant response rating (0 to 100), Kochia: 16 g ai/ha, 0 is no effect, 100 is complete control; for Kochia plant response rating: 31 g ai/ha; for Kochia plant response rating / Plant response rating, Kochia: scale 0 to 100 (0 no effect, 100 complete control)
Summary of the method: as §2

wild oat = test: Test C postemergence; type: in vivo, Avena fatua; conditions: for Plant response rating (0 to 100), Oat, Wild: 16 g ai/ha, 0 is no effect, 100 is complete control; for Oat, Wild plant response rating: 31 g ai/ha; for Oat, Wild plant response rating / Plant response rating, Oat, Wild: scale 0 to 100 (0 no effect, 100 complete control)
Summary of the method: as §2

velvetleaf [9] = test: Test C postemergence; type: in vivo, Abutilon theophrasti; conditions: for Plant response rating (0 to 100), Velvetleaf: 16 g ai/ha, 0 is no effect, 100 is complete control; for Velvetleaf plant response rating: 31 g ai/ha; for Velvetleaf plant response rating / Plant response rating, Velvetleaf: scale 0 to 100 (0 no effect, 100 complete control)
Summary of the method: as §2

[10] = 1000 g ai/ha, 0 to 100 scale, 0 no effect, 100 complete control, approx. 10 days
[11] = 1000 g ai/ha, 0 to 100 scale, 0 no effect, 100 complete control
[12] = postemergence, visual rating, 13 to 15 days
[13] = 125 g ai/ha, postemergence, visual rating
[14] = Postemergence, 62 g ai/ha, 13 to 15 days
[15] = 500 g ai/ha, 0 to 100 scale where 0 is no effect and 100 is complete control
[16] = 125 g ai/ha, 0 to 100 scale where 0 is no effect and 100 is complete control

Clc1cnc(Oc2ccccc2-n2cc(Br)nn2)nc1 [Compound 223]
Barnyardgrass plant response rating (barnyardgrass [1]; [10]): 100 | Morningglory plant response rating (morningglory [2]; [10]): 100 | Pigweed plant response rating (pigweed [3]; [10]): 100 | Velvetleaf plant response rating (velvetleaf [4]; [10]): 100 | Plant response rating, Morningglory (morningglory [5]; [11]): 100 | Plant response rating, Wheat (wheat; [11]): 70 | Plant response rating, Ducksalad (Heteranthera limosa): 90 | Plant response rating (0 to 100), Blackgrass (blackgrass; postemergence): 0 | Blackgrass plant response rating (blackgrass; [12]): 30 | Plant response rating, Blackgrass (blackgrass; [13]): 0 | Plant response rating, Blackgrass (blackgrass; [14]): 5 | Plant response rating (0 to 100), Morningglory (morningglory [6]; postemergence): 5 | Morningglory plant response rating (morningglory [6]; [12]): 45 | Plant response rating, Morningglory (morningglory [6]; [13]): 80 | Plant response rating, Morningglory (morningglory [6]; [14]): 70 | Plant response rating (0 to 100), Pigweed (pigweed [7]; postemergence): 70 | Pigweed plant response rating (pigweed [7]; [12]): 70 | Plant response rating, Pigweed (pigweed [7]; [13]): 90 | Plant response rating, Pigweed (pigweed [7]; [14]): 80 | Plant response rating (0 to 100), Ragweed (ragweed; postemergence): 10 | Ragweed plant response rating (ragweed; [12]): 20 | Plant response rating, Ragweed (ragweed; [13]): 75 | Plant response rating, Ragweed (ragweed; [14]): 55 | Plant response rating (0 to 100), Barnyardgrass (barnyardgrass [8]; postemergence): 0 | Barnyardgrass plant response rating (barnyardgrass [8]; postemergence, visual rating): 0 | Plant response rating, Barnyardgrass (barnyardgrass [8]; [13]): 5 | Plant response rating, Barnyardgrass (barnyardgrass [8]; Postemergence, 62 g ai/ha): 5 | Plant response rating (0 to 100), Kochia (kochia; postemergence): 70 | Kochia plant response rating (kochia; [12]): 85 | Plant response rating, Kochia (kochia; [13]): 90 | Plant response rating, Kochia (kochia; [14]): 80 | Plant response rating (0 to 100), Oat, Wild (wild oat; postemergence): 0 | Oat, Wild plant response rating (wild oat; [12]): 0 | Plant response rating, Oat, Wild (wild oat; [13]): 5 | Plant response rating, Oat, Wild (wild oat; [14]): 0 | Plant response rating (0 to 100), Velvetleaf (velvetleaf [9]; postemergence): 30 | Velvetleaf plant response rating (velvetleaf [9]; [12]): 55 | Plant response rating, Velvetleaf (velvetleaf [9]; [13]): 90 | Plant response rating, Velvetleaf (velvetleaf [9]; [14]): 80

Fc1cnc(Oc2ccccc2-n2cc(C(F)F)cn2)nc1 [Compound 228]
Barnyardgrass plant response rating (0 to 100 scale, 0 is no effect, 100 is complete control) (barnyardgrass [1]; 125 g ai/ha): 20 | Barnyardgrass plant response rating (barnyardgrass [1]; [15]): 100 | Morningglory plant response rating (0 to 100 scale) (morningglory [2]; 125 g ai/ha): 10 | Morningglory plant response rating (morningglory [2]; [15]): 80 | Pigweed plant response rating (0 to 100 scale) (pigweed [3]; 125 g ai/ha): 0 | Pigweed plant response rating (pigweed [3]; [15]): 0 | Velvetleaf plant response rating (0 to 100 scale) (velvetleaf [4]; 125 g ai/ha): 70 | Velvetleaf plant response rating (velvetleaf [4]; [15]): 100 | Morningglory plant response rating (morningglory [5]; [16]): 80 | Plant response rating, Morningglory (morningglory [5]; [15]): 100 | Wheat plant response rating (wheat; [16]): 0 | Plant response rating, Wheat (wheat; [15]): 70 | Plant response rating, Ducksalad (Heteranthera limosa): 75 | Plant response rating (0 to 100), Blackgrass (blackgrass; postemergence): 0 | Blackgrass plant response rating (blackgrass; [12]): 0 | Plant response rating, Blackgrass (blackgrass; [13]): 40 | Plant response rating, Blackgrass (blackgrass; [14]): 0 | Plant response rating (0 to 100), Morningglory (morningglory [6]; postemergence): 5 | Morningglory plant response rating (morningglory [6]; [12]): 10 | Plant response rating, Morningglory (morningglory [6]; [13]): 35 | Plant response rating, Morningglory (morningglory [6]; [14]): 25 | Plant response rating (0 to 100), Pigweed (pigweed [7]; postemergence): 25 | Pigweed plant response rating (pigweed [7]; [12]): 50 | Plant response rating, Pigweed (pigweed [7]; [13]): 55 | Plant response rating, Pigweed (pigweed [7]; [14]): 60 | Plant response rating (0 to 100), Ragweed (ragweed; postemergence): 5 | Ragweed plant response rating (ragweed; [12]): 20 | Plant response rating, Ragweed (ragweed; [13]): 45 | Plant response rating, Ragweed (ragweed; [14]): 55 | Plant response rating (0 to 100), Barnyardgrass (barnyardgrass [8]; postemergence): 0 | Barnyardgrass plant response rating (barnyardgrass [8]; postemergence, visual rating): 0 | Plant response rating, Barnyardgrass (barnyardgrass [8]; [13]): 5 | Plant response rating, Barnyardgrass (barnyardgrass [8]; Postemergence, 62 g ai/ha): 5 | Plant response rating (0 to 100), Kochia (kochia; postemergence): 30 | Kochia plant response rating (kochia; [12]): 60 | Plant response rating, Kochia (kochia; [13]): 85 | Plant response rating, Kochia (kochia; [14]): 80 | Plant response rating (0 to 100), Oat, Wild (wild oat; postemergence): 0 | Oat, Wild plant response rating (wild oat; [12]): 0 | Plant response rating, Oat, Wild (wild oat; [13]): 5 | Plant response rating, Oat, Wild (wild oat; [14]): 0 | Plant response rating (0 to 100), Velvetleaf (velvetleaf [9]; postemergence): 15 | Velvetleaf plant response rating (velvetleaf [9]; [12]): 55 | Plant response rating, Velvetleaf (velvetleaf [9]; [13]): 70 | Plant response rating, Velvetleaf (velvetleaf [9]; [14]): 60
